Test results published in US20070128217A1 (priority 2003, published 2007).

Columns and labels:
[1] = system: antibodies in sera from SARS patients (sera 1a, 1b, 2, 6, 37, 62, London, SARS-yellow, SARS-green); assay type: binding, human; design: Binding of serum 6 to linear peptides of protein X1 of SARS-CoV Urbani / Binding of serum 37 to linear peptides of protein X1 of SARS-CoV Urbani / Binding of serum 6 to looped/cyclic peptide (PEPSCAN-ELISA) / Binding of serum 37 to looped/cyclic peptide (PEPSCAN-ELISA) / Binding of serum 37 to looped/cyclic peptides of protein X1 of SARS-CoV Urbani / Binding of serum 6 to linear peptides of protein X2 / Binding of serum 37 to linear peptides of protein X2 / Binding of serum 37 to looped/cyclic peptides of protein X2 of SARS-CoV Urbani / Binding of serum 6 to linear peptides of protein M of SARS-CoV Urbani / Binding of serum 37 to linear peptides of protein M of SARS-CoV Urbani / Binding of serum 6 to looped/cyclic peptides of protein M of SARS-CoV Urbani / Binding of serum 37 to looped/cyclic peptides of protein M of SARS-CoV Urbani / Binding of serum 6 to linear peptides of protein X3 of SARS-CoV Urbani / Binding of serum 37 to linear peptides of protein X3 of SARS-CoV Urbani / Binding of serum 37 to looped/cyclic peptides of protein X3 of SARS-CoV Urbani / Binding of serum 6 to linear peptides of protein X4 of SARS-CoV Urbani / Binding of serum 37 to linear peptides of protein X4 of SARS-CoV Urbani / Binding of serum 37 to looped/cyclic peptides of protein X4 of SARS-CoV Urbani / Binding of serum 6 to linear peptides of protein X5 of SARS-CoV Urbani / Binding of serum 37 to linear peptides of protein X5 of SARS-CoV Urbani / Binding of serum 37 to looped/cyclic peptides of protein X5 of SARS-CoV Urbani / Binding of serum 6 to linear peptides of protein N of SARS-CoV Urbani / Binding of serum 37 to linear peptides of protein N of SARS-CoV Urbani / Binding of serum 6 to linear peptide (PEPSCAN-ELISA) / Binding of serum 1a to looped/cyclic peptides of protein N of SARS-CoV Urbani / Binding of serum 1b to looped/cyclic peptides of protein N of SARS-CoV Urbani / Binding of serum 2 to looped/cyclic peptides of protein N of SARS-CoV Urbani / Binding of serum 6 to looped/cyclic peptides of protein N of SARS-CoV Urbani / Binding of serum 37 to looped/cyclic peptides of protein N of SARS-CoV Urbani / Binding of serum 62 to looped/cyclic peptides of protein N of SARS-CoV Urbani / Binding of serum London to looped/cyclic peptides of protein N of SARS-CoV Urbani / Binding of serum SARS-green to looped/cyclic peptides of protein N of SARS-CoV Urbani: unit not given here
[2] = system: control sera (pooled serum of ten healthy LUMC hospital workers; commercial negative donor pooled serum from the Dutch bloodbank); assay type: binding, human; design: Binding of Control serum LUMC to linear peptides / Binding of Control serum Blood-bank to linear peptides / Binding of Control serum LUMC to looped peptides / Binding of Control Serum Blood-Bank to Looped peptides / Binding of Control serum LUMC to linear peptides of the protein M of SARS-CoV Urbani / Binding of Control serum Blood-bank to linear peptides of the protein M of SARS-CoV Urbani / Binding of Control serum LUMC to looped peptides of the protein M of SARS-CoV Urbani / Binding of Control Serum Blood-Bank to Looped peptides of the protein M of SARS-CoV Urbani: unit not given here
[3] = system: rabbit serum obtained by immunizing a rabbit with the SARS-CoV strain Frankfurt 1; assay type: binding; design: Binding of a rabbit serum to linear peptides / Binding of a rabbit serum to looped peptides / Rabbit serum linear peptides / Rabbit serum looped peptides / Binding of a rabbit serum to linear peptides of protein N of SARS-CoV Urbani (Rabbit serum linear peptides) / Binding of a rabbit serum to looped/cyclic peptides of protein N of SARS-CoV Urbani (Rabbit serum looped peptides): unit not given here

KNPLLYDANYFVCWH
Binding of serum 1a to linear peptides of protein X1 of SARS-CoV Urbani [1]: 0.8 | Binding of serum 1a to looped/cyclic peptide (PEPSCAN-ELISA) [1]: 0.6 | Binding of serum 1b to linear peptides of protein X1 of SARS-CoV Urbani [1]: 0.5 | Binding of serum 1b to looped/cyclic peptide (PEPSCAN-ELISA) [1]: 0.5 | Binding of serum 2 to linear peptides of protein X1 of SARS-CoV Urbani [1]: 0.5 | Binding of serum 2 to looped/cyclic peptide (PEPSCAN-ELISA) [1]: 0.4 | Binding of serum 6 to linear peptides of protein X1 of SARS-CoV Urbani [1]: 0.4 | Binding of serum 6 to looped/cyclic peptide (PEPSCAN-ELISA) [1]: 0.4 | Binding of serum 37 to linear peptides of protein X1 of SARS-CoV Urbani [1]: 0.6 | Binding of serum 37 to looped/cyclic peptide (PEPSCAN-ELISA) [1]: 0.6 | Binding of serum 62 to linear peptides of protein X1 of SARS-CoV Urbani [1]: 0.5 | Binding of serum 62 to looped/cyclic peptide (PEPSCAN-ELISA) [1]: 0.6 | Binding of serum London to linear peptides of protein X1 of SARS-CoV Urbani [1]: 0.3 | Binding of serum London to looped/cyclic peptide (PEPSCAN-ELISA) [1]: 0.2 | Binding of serum SARS-green to linear peptides of protein X1 of SARS-CoV Urbani [1]: 0.4 | Binding of serum SARS-green to looped/cyclic peptide (PEPSCAN-ELISA) [1]: 0.3 | Binding of serum SARS-yellow to linear peptides of protein X1 of SARS-CoV Urbani [1]: 0.3 | Binding of serum SARS-yellow to looped/cyclic peptide (PEPSCAN-ELISA) [1]: 0.4 | Binding of Control Serum Blood-Bank to Looped peptides [2]: 0.6 | Binding of Control serum Blood-bank to linear peptides [2]: 0.4 | Binding of Control serum LUMC to linear peptides [2]: 0.4 | Binding of Control serum LUMC to looped peptides [2]: 0.7 | Binding of a rabbit serum to linear peptides [3]: 0.1 | Binding of a rabbit serum to looped peptides [3]: 0.7

PCPSGTYEGNSPFHP
Binding of serum 1a to linear peptides of protein X4 of SARS-CoV Urbani [1]: 0.7 | Binding of serum 1a to looped/cyclic peptides of protein X4 of SARS-CoV Urbani [1]: 0.7 | Binding of serum 1b to linear peptides of protein X4 of SARS-CoV Urbani [1]: 0.5 | Binding of serum 1b to looped/cyclic peptides of protein X4 of SARS-CoV Urbani [1]: 0.1 | Binding of serum 2 to linear peptides of protein X4 of SARS-CoV Urbani [1]: 0.4 | Binding of serum 2 to looped/cyclic peptides of protein X4 of SARS-CoV Urbani [1]: 0.7 | Binding of serum 6 to linear peptides of protein X4 of SARS-CoV Urbani [1]: 0.5 | Binding of serum 6 to looped/cyclic peptides of protein X4 of SARS-CoV Urbani [1]: 0.5 | Binding of serum 37 to linear peptides of protein X4 of SARS-CoV Urbani [1]: 0.7 | Binding of serum 37 to looped/cyclic peptides of protein X4 of SARS-CoV Urbani [1]: 0.7 | Binding of serum 62 to linear peptides of protein X4 of SARS-CoV Urbani [1]: 0.7 | Binding of serum 62 to looped/cyclic peptides of protein X4 of SARS-CoV Urbani [1]: 0.7 | Binding of serum London to linear peptides of protein X4 of SARS-CoV Urbani [1]: 0.7 | Binding of serum London to looped/cyclic peptides of protein X4 of SARS-CoV Urbani [1]: 0.3 | Binding of serum SARS-green to linear peptides of protein X4 of SARS-CoV Urbani [1]: 0.5 | Binding of serum SARS-green to looped/cyclic peptides of protein X4 of SARS-CoV Urbani [1]: 0.4 | Binding of serum SARS-yellow to linear peptides of protein X4 of SARS-CoV Urbani [1]: 0.7 | Binding of serum SARS-yellow to looped/cyclic peptides of protein X4 of SARS-CoV Urbani [1]: 0.4 | Binding of Control Serum Blood-Bank to Looped peptides [2]: 0.7 | Binding of Control serum Blood-bank to linear peptides [2]: 0.6 | Binding of Control serum LUMC to linear peptides [2]: 0.5 | Binding of Control serum LUMC to looped peptides [2]: 0.9 | Rabbit serum linear peptides [3]: 0.6 | Rabbit serum looped peptides [3]: 0.4

EVYYQLESTQITTDT
Binding of serum 1a to linear peptides of protein X1 of SARS-CoV Urbani [1]: 0.7 | Binding of serum 1a to looped/cyclic peptides of protein X1 of SARS-CoV Urbani [1]: 0.5 | Binding of serum 1b to linear peptides of protein X1 of SARS-CoV Urbani [1]: 0.6 | Binding of serum 1b to looped/cyclic peptides of protein X1 of SARS-CoV Urbani [1]: 0.4 | Binding of serum 2 to linear peptides of protein X1 of SARS-CoV Urbani [1]: 0.4 | Binding of serum 2 to looped/cyclic peptides of protein X1 of SARS-CoV Urbani [1]: 0.1 | Binding of serum 6 to linear peptides of protein X1 of SARS-CoV Urbani [1]: 0.5 | Binding of serum 6 to looped/cyclic peptides of protein X1 of SARS-CoV Urbani [1]: 0.2 | Binding of serum 37 to linear peptides of protein X1 of SARS-CoV Urbani [1]: 0.7 | Binding of serum 37 to looped/cyclic peptides of protein X1 of SARS-CoV Urbani [1]: 0.5 | Binding of serum 62 to linear peptides of protein X1 of SARS-CoV Urbani [1]: 0.4 | Binding of serum 62 to looped/cyclic peptides of protein X1 of SARS-CoV Urbani [1]: 0.5 | Binding of serum London to linear peptides of protein X1 of SARS-CoV Urbani [1]: 0.3 | Binding of serum London to looped/cyclic peptides of protein X1 of SARS-CoV Urbani [1]: 0.2 | Binding of serum SARS-green to linear peptides of protein X1 of SARS-CoV Urbani [1]: 0.2 | Binding of serum SARS-green to looped/cyclic peptides of protein X1 of SARS-CoV Urbani [1]: 0.3 | Binding of serum SARS-yellow to linear peptides of protein X1 of SARS-CoV Urbani [1]: 0.3 | Binding of serum SARS-yellow to looped/cyclic peptides of protein X1 of SARS-CoV Urbani [1]: 0.3 | Binding of Control Serum Blood-Bank to Looped peptides [2]: 0.5 | Binding of Control serum Blood-bank to linear peptides [2]: 0.4 | Binding of Control serum LUMC to linear peptides [2]: 0.4 | Binding of Control serum LUMC to looped peptides [2]: 0.4 | Binding of a rabbit serum to linear peptides [3]: 0.1 | Binding of a rabbit serum to looped peptides [3]: 0.4
